Source: patent publication US20230263758A1, “COMPOSITIONS OF EDTA HAVING ACTIVITY AGAINST PLANKTONIC AND BIOFILM CELLS OF CLINICALLY RELEVANT PATHOGENS” (SterileCare Inc., priority 2022, published 2023)
Where a name gives a salt, the structure may show the parent alone.

Experiments:
MRSA ON184 [1] = assay: Checkerboard, FMCI; type: cell-based, Staphylococcus aureus; details: EDTA + chlorhexidine HCl
Description: (§1) An assay was made using a minimum inhibitory concentration (MIC) and minimum bactericidal concentration (MBC) and minimum fungicidal concentration (MFC) determination. The MIC was determined by the micro broth dilution method in 96-well plates. Serial two-fold dilutions of tetrasodium EDTA (from 2% to 0.015%), ethanol (from 50% to 0.1%) and chlorhexidine HCl (from 100 μg/mL to 0.025 μg/mL) were prepared in MH broth with a final volume of 90 μL per well. A 10 μL containing 1×10^5 bacterial cells or 2×10^3 fungal cells were added to each well. The inoculated plates were covered with a lid, sealed with Parafilm, and incubated for 24 h at 37° C. with slight rocking on a tilting platform shaker. After incubation, the optical density at 600 nm (OD 600) of the cultures in each well was measured using an xMark™ Microplate Absorbance Spectrophotometer (Bio-Rad). […] MBCs and MFCs were determined by transferring 100 μL from each well with no apparent growth onto appropriate agar plates, followed by incubation for 24 h at 37° C.
A fourth composition and solution included tetrasodium EDTA with ethanol or chlorhexidine HCl. […] The concentrations of antimicrobials used were based on previously determined MIC values. […] Microtiter plates were incubated at 37° C. for 24 h, and the results were analyzed. […]

MRSA ON184 [2] = assay: MBC/MFC determination; type: cell-based, Staphylococcus aureus; details: agent alone
Description: as §1

Escherichia coli SK2 = assay: MBEC assay, 48-h biofilm; type: cell-based; details: E. coli SK2 48-h biofilm; 24 h exposure
Description: (§2) A biofilm cultivation cell composition was provided. This fifth composition was created using an MBEC Assay® biofilm inoculator, consisting of a polystyrene lid with 96 downward-protruding pegs and a corresponding base used to grow biofilms. A standardized inoculum was diluted in an appropriate biofilm growth medium to achieve a viable cell count of 1.5×10^6 CFU/mL of bacterial cells or 5×10^5 CFU/mL of fungal cells. Then, 150 μL of this inoculum was transferred into each appropriate well, and the peg lids were inserted into the microtiter plates. The plates were sealed with Parafilm and were incubated at optimum temperature for 48 h with slight rocking for bacteria and shaking at 200 rpm for fungal strains. After incubation, the peg lid was removed from the base and rinsed twice with sterile phosphate-buffered saline (PBS) for 2 min to remove loosely attached non-sessile cells. Before the antimicrobial challenge, the pegs in column 1 (n=8) were considered the biofilm growth control; these pegs were removed from the lids, placed into 200 μL of recovery medium, and analyzed for starting biofilm cell numbers as described below. The rinsed pegs were placed into new 96-well plates containing two-fold dilutions of antimicrobials such as tetrasodium EDTA (4%-0.0125%), ethanol (100%-0.2%), and chlorhexidine HCl (100 μg/mL-0.4 μg/mL) in 200 μL of suitable biofilm growth medium per well and incubated at optimum temperature for 24 h. After the antimicrobial challenge, the pegs were rinsed twice with sterile PBS for 2 min and placed into a new 96-well plate containing 200 μL of recovery medium. The recovery plates were sealed with Parafilm, and biofilm cells were dislodged from the pegs by sonication for 30 min with a Branson 3510 bath sonicator. The biofilm cells in the recovery medium were serially diluted, and a drop dilution assay was performed to enumerate the viable cells. MBEC values were determined as the minimum concentration of antimicrobials that yielded a viable cell count at or lower than the 125 CFU/mL detection limit.

[3] = tested on: Pseudomonas aeruginosa SK1; assay: MBEC assay, 48-h biofilm; type: cell-based; details: P. aeruginosa SK1 48-h biofilm; 24 h exposure
Description: as §2

[4] = tested on: Staphylococcus aureus ON89; assay: MBEC assay, 48-h biofilm; type: cell-based; details: S. aureus ON89 48-h biofilm; 24 h exposure
Description: as §2

Proteus mirabilis ON153 [5] = assay: MBEC assay, 48-h biofilm; type: cell-based; details: P. mirabilis ON153 48-h biofilm; 24 h exposure
Description: as §2

Candida albicans SK4b [6] = assay: MBEC assay, 48-h biofilm; type: cell-based; details: C. albicans SK4b 48-h biofilm; 24 h exposure
Description: as §2

[7] = tested on: Staphylococcus epidermidis SK9; assay: MBEC assay, 48-h biofilm; type: cell-based; details: S. epidermidis SK9 48-h biofilm; 24 h exposure
Description: as §2

E. coli SK2 [8] = assay: MBC/MFC determination; type: cell-based, Escherichia coli; details: agent alone
Description: as §1

E. coli SK2 [9] = assay: MIC, micro broth dilution; type: cell-based, Escherichia coli; details: agent alone
Description: as §1

[10] = tested on: Stenotrophomonas maltophilia ON17; assay: MIC, micro broth dilution; type: cell-based; details: S. maltophilia ON17; agent alone
Description: as §1

[11] = tested on: Pseudomonas aeruginosa SK1; assay: MIC, micro broth dilution; type: cell-based; details: P. aeruginosa SK1; agent alone
Description: as §1

Escherichia coli ON29 = assay: MIC, micro broth dilution; type: cell-based; details: E. coli ON29; agent alone
Description: as §1

[12] = tested on: Staphylococcus aureus ON89; assay: MIC, micro broth dilution; type: cell-based; details: S. aureus ON89; agent alone
Description: as §1

Proteus mirabilis ON153 [13] = assay: MIC, micro broth dilution; type: cell-based; details: P. mirabilis ON153; agent alone
Description: as §1

[14] = tested on: Staphylococcus epidermidis ON170; assay: MIC, micro broth dilution; type: cell-based; details: S. epidermidis ON170; agent alone
Description: as §1

Serratia marcescens SK2 = assay: MIC, micro broth dilution; type: cell-based; details: S. marcescens SK2; agent alone
Description: as §1

Candida albicans SK4b [15] = assay: MIC, micro broth dilution; type: cell-based; details: C. albicans SK4b; agent alone
Description: as §1

Candida albicans SK4b [16] = assay: Checkerboard FBEC index, 48-h biofilm; type: cell-based; details: C. albicans SK4b biofilm; EDTA + chlorhexidine HCl
Description: (§3) In step (4), microtiter plates are incubated at 37° C. for 24 h. then (6), after incubation, the bacterial and fungal cells were dislodged from the pegs into the recovery medium described above.
(§4) Three 10-μL aliquots, for a total of 30 μL from each well of recovery medium, were spotted on MH agar plates and incubated for 24 h at 37° C. […] The FBEC determination is a modification of the FICI.

MRSA ON184 [17] = assay: Checkerboard FBEC index, 48-h biofilm; type: cell-based, Staphylococcus aureus; details: EDTA + chlorhexidine HCl
Description: as §3, §4

MRSA ON184 [18] = assay: MIC, micro broth dilution; type: cell-based, Staphylococcus aureus; details: agent alone
Description: as §1

C. albicans ON47 = assay: MBC/MFC determination; type: cell-based, Candida albicans; details: agent alone
Description: as §1

S. epidermidis SK9 = assay: MIC, micro broth dilution; type: cell-based, Staphylococcus epidermidis; details: agent alone
Description: as §1

## [H]/N=C(\N/C(=N/[H])NCCCCCCNC(=N)NC(=N)Nc1ccc(Cl)cc1)Nc1ccc(Cl)cc1 [Chlorhexidine HCl, chlorhexidine HCl, reference compound]
MRSA ON184 [1]
  Microbicidal concentration in combination: 0.4 µg/mL

## O=C([O-])CN(CCN(CC(=O)[O-])CC(=O)[O-])CC(=O)[O-].[Na+].[Na+].[Na+].[Na+] [EDTA, tetrasodium EDTA]
MRSA ON184 [2]
  MBC/MFC: 2 % w/v
Escherichia coli SK2
  MBEC: 2 % w/v
[3]
  MBEC: 4 % w/v
[4]
  MBEC: 4 % w/v
Proteus mirabilis ON153 [5]
  MBEC: 4 % w/v
Candida albicans SK4b [6]
  MBEC: 1 % w/v
[7]
  MBEC: 2 % w/v
E. coli SK2 [8]
  MBC/MFC: 0.5 % w/v
E. coli SK2 [9]
  MIC: 0.5 % w/v
[10]
  MIC: 0.063 % w/v
[11]
  MIC: 0.25 % w/v
Escherichia coli ON29
  MIC: 0.5 % w/v
[12]
  MIC: 0.063 % w/v
Proteus mirabilis ON153 [13]
  MIC: 1 % w/v
[14]
  MIC: 0.063 % w/v
Serratia marcescens SK2
  MIC: 2 % w/v
Candida albicans SK4b [15]
  MIC: 1 % w/v
Candida albicans SK4b [16]
  Biofilm eradication concentration in combination (FBEC): 0.063 % w/v
MRSA ON184 [17]
  Biofilm eradication concentration in combination (FBEC): 0.031 % w/v
MRSA ON184 [18]
  MIC: 0.063 % w/v
C. albicans ON47
  MBC/MFC: 1 % w/v
S. epidermidis SK9
  MIC: 0.063 % w/v
